Source: patent US7056685B1, “Receptor ligands and methods of modulating receptors” (Amgen Inc., priority 2002, dated 2006)
pEC50: −log10 of the molar value. “Also recorded” adds a separate entry of the source. Values belong to the compound of their own block, whether it stands above or below them.

Legend:
GPR43 = biological target: T1, GPR43 (Homo sapiens, UniProt O15552); assay: GPR43 activation by fatty acids (FIG. 2); format: cell-based; details: for concentration at which GPR43 is activated: FIG. 2
T1 sequence (O15552 1-330): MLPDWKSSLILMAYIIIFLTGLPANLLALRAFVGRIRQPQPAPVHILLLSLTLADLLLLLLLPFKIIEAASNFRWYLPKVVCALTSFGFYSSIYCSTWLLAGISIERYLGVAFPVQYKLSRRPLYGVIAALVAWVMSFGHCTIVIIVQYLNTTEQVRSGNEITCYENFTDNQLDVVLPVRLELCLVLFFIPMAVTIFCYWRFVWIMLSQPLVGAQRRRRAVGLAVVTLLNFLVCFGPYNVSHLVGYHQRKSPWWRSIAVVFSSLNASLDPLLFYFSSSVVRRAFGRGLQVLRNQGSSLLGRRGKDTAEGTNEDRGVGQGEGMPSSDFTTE
Description: An activated or inhibited G-protein will in turn alter the properties of downstream effectors such as proteins, enzymes, and channels. The classic examples are the activation of cGMP phosphodiesterase by transducin in the visual system, adenylate cyclase by the stimulatory G-protein, phospholipase C by Gq and other cognate G proteins, and modulation of diverse channels by Gi and other G proteins. Downstream consequences such as generation of diacyl glycerol and IP3 by phospholipase C, and in turn, for calcium mobilization e.g., by IP3 (further discussed below) can also be examined. Thus, modulators can be evaluated for the ability to stimulate or inhibit ligand-mediated downstream effects. […] Candidate modulators may be assessed for the ability to inhibit inositol phosphate accumulation and/or calcium mobilization induced by the natural ligand, e.g., β-alanine (TGR2), a 2–3 carbon chain fatty acid (GPR43), a medium or long chain fatty acid (GPR40), succinic acid (TGR18), or a-ketoglutaric acid (TGR164).
A battery of fatty acids were tested for the ability to activate GPR43.

TGR18 [1] = biological target: T2, TGR18 (Homo sapiens, UniProt Q9BXA5); assay: Inositol phosphate accumulation assay, 293 cells stably expressing TGR18; format: cell-based; set-up: expressed in transfected cells; transient for CRE-luciferase; details: 45 minutes stimulation
T2 sequence (Q9BXA5 with tags, fused parts or gaps limits assumed): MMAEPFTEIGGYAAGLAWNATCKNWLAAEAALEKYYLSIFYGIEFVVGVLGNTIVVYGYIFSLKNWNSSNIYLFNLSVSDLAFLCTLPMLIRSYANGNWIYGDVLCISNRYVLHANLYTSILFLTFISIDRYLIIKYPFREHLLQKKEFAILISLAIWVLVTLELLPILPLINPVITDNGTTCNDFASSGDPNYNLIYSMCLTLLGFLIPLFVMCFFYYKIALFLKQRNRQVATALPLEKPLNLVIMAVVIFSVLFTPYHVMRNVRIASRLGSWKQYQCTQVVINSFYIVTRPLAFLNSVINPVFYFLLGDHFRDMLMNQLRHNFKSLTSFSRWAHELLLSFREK
Method: The ability of various ligands to increase inositol phosphate was also assessed. For this analysis, 293 cells stably expression TGR18 were incubated in inositol-free DMEM/10% dialyzed FCS/1 μCi/ml ^3H-inositol for 16 hours. Following incubation 10 mM LiCi was added to the cells for 15 minutes. Cells were then stimulated with various ligands for 45 minutes and extracted with ice-cold 20 mM formic acid. H3-inositol phosphate was collected on Dowex ion-exchange column (formate form) and radioactivity recorded by Topcount scintillation counter.

TGR164 [2] = biological target: T3, TGR164 (Homo sapiens, UniProt Q96P68); assay: Aequorin assay, TGR164; format: cell-based; details: for activation of TGR164 in Aequorin assay: FIGS. 7A and 7B
T3 construct: expressed in transfected cells; also 'various cell lines'

TGR164 [3] = biological target: T3, TGR164; assay: Inositol phosphate accumulation assay, TGR164; format: cell-based
TGR18 [4] = biological target: T2, TGR18; assay: FLIPR intracellular calcium assay, 293 cells stably expressing TGR18; format: cell-based; set-up: expressed in transfected cells; transient for CRE-luciferase; details: for activation of TGR18 in FLIPR assay: FIG. 6C
Method: Mobilization of intracellular calcium in response to various ligands was also evaluated using a FLIPR assay. In this assay, 293 cells stably expressing TGR18 were seeded into 384-well plates and incubated at 37° C. overnight. The growth medium was then aspirated and replaced with 50 μl loading medium (FLIPR no-wash kit, Molecular Devices) and incubated at 37° C. for 1 hour. The cells were placed in a fluorometric imaging plate reader (FLIPR), and changes in cellular fluorescence were recorded after the addition of 25 μl of various ligands diluted in FLIPR buffer (FLIPR no-wash kit, Molecular Devices). Analogs of succinic acid that activated TGR18 include succinic acid, maleic acid, oxalacetic acid, methylmalonic acid and itaconic acid (FIG. 6C).

Human TGR18 = Human TGR18 (Homo sapiens, UniProt Q9BXA5); details: FIG. 6A
Method: (§1) In order to examine the ability of a compound to activate TGR18, CHO cells were transiently transfected with 10 μg of the GPCR and 10 μg Aequorin reporter gene in a 150 mm dish. As a negative control, the same amount of empty vector and the Aequorin reporter were cotransfected into CHO cells. After 24 hours, cells were harvested and resuspended in Aequorin buffer (Hank's buffered saline with 20 mM Hepes, pH7.6 and 0.1% BSA) containing 1 μg/ml coelenterazine f and incubated at room temperature for a further 2 hours. The Aequorin luminescence was recorded on Microlumat after injecting 100 μl of cells into 100 μl of ligand prepared in Aequorin buffer.

mouse TGR18 = mouse TGR18 (Mus musculus, UniProt Q99MT6); details: FIG. 6A
Method: as §1

rat TGR18 = rat TGR18 (Rattus norvegicus, UniProt Q6IYF9); details: FIG. 6A
Method: as §1

thirty other GPCRs = details: at 100 μM
Method: as §1

TGR18 [5] = biological target: T2, TGR18; details: 293 cells; 6 hours
Method: The ability of a ligand to induce TGR18-mediated activation of a CRE-luciferase reporter was also evaluated. For this assay, 293 cells were transiently transfected with CRE-luciferase reporter, tk-renila luciferase reporter and TGR18 plasmid. Succinic acid was then added to the cell culture supernatants and incubated for a further 6 hours. The luminescence were recorded on CLIPR after cell lysis as illustrated in Dual-luciferase assay kit (Promega).

TGR18 [6] = biological target: T2, TGR18; assay: TGR18 ligand activity, assay not specified (introduction); format: cell-based; set-up: expressed in transfected cells; transient for CRE-luciferase
40 other orphan GPCRs = details: at 10 μM
TGR2 [7] = biological target: T4, TGR2 (Homo sapiens, UniProt Q8TDS7)
mMrgD = mMrgD (Mus musculus, UniProt Q91ZB8)
TGR2 [8] = biological target: T4, TGR2; assay: Aequorin assay, CHO cells transiently transfected with TGR2; format: cell-based; set-up: expressed in transfected cells; host or cells: CHO cells, transient
GPR77 = biological target: T5, GPR77 (Homo sapiens, UniProt Q9P296); assay: Competitive binding assay, membrane binding format, cells transiently transfected with GPR77
T5 construct: expressed in transfected cells
Description: GPR77 was transiently transfected into cells.

T4 sequence (Q8TDS7 whole entry): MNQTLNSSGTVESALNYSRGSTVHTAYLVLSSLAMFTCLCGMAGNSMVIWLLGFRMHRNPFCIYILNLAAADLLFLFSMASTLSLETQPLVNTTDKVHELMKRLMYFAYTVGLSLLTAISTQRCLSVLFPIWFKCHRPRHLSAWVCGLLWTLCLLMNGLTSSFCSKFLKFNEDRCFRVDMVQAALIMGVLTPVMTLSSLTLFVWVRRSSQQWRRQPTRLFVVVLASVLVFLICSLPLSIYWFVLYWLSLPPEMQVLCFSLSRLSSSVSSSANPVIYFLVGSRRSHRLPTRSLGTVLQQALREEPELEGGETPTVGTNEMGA
T5 sequence (Q9P296 whole entry): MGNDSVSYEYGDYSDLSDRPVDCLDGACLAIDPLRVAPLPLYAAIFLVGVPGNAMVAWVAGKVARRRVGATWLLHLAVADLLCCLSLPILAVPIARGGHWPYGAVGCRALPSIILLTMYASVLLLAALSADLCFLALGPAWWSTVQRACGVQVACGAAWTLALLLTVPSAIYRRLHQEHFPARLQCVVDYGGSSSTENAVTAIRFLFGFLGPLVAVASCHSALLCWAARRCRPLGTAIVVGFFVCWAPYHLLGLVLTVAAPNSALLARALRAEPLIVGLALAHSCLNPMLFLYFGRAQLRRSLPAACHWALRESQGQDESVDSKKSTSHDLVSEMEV
rat TGR18, sequence (Q6IYF9 whole entry): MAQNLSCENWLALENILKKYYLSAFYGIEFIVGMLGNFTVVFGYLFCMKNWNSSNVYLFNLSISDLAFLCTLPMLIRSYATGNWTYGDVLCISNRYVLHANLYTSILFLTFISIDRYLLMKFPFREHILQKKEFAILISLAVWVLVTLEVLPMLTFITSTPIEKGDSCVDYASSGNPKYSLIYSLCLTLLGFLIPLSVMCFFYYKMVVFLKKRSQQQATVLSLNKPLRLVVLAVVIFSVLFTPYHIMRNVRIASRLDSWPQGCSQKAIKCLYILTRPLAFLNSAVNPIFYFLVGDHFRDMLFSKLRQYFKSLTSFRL
mMrgD, sequence (Q91ZB8 whole entry): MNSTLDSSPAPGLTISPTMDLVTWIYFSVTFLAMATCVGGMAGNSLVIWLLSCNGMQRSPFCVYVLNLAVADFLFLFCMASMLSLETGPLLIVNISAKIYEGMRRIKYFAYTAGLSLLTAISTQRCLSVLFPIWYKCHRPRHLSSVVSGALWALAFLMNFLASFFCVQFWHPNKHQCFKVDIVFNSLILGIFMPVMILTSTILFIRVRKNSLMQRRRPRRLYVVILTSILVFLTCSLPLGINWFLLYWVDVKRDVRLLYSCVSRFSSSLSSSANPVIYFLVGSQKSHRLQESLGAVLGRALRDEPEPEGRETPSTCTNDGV
mouse TGR18, sequence (Q99MT6 whole entry): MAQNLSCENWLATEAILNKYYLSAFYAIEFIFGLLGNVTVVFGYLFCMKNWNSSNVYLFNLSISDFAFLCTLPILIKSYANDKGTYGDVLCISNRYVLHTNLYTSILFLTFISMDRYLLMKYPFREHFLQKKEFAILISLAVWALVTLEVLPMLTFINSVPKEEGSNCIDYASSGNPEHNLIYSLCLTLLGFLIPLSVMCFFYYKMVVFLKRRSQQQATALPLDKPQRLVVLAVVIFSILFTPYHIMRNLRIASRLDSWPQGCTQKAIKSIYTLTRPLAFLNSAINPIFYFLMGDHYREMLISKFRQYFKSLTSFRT

Compound: CC(=O)O [acetate]
- concentration at which GPR43 is activated (GPR43): about 140 μM

Compound: O=C(O)/C=C/C(=O)O [fumaric acid]
- increase of inositol phosphate levels, TGR18 (TGR18 [1]): did not

Compound: CCCCCCC(=O)O [heptanoeate]
- activation of GPR43 (GPR43): do not activate

Compound: C=C(CC(=O)O)C(=O)O [itaconic acid]
- activation of TGR164 in Aequorin assay (TGR164 [2]): activated
- inositol phosphate accumulation, TGR164 (TGR164 [3]): observed
- activation of TGR18 in FLIPR assay (TGR18 [4]): activated

Compound: O=C(O)/C=C\C(=O)O [maleic acid]
- activation of TGR18 in FLIPR assay (TGR18 [4]): activated

Compound: CC(C(=O)O)C(=O)O [methylmalonic acid]
- activation of TGR18 in FLIPR assay (TGR18 [4]): activated

Compound: CCCCCCCC(=O)O [octanoate]
- activation of GPR43 (GPR43): do not activate

Compound: CCCCC(=O)O [pentanoate]
- activation of GPR43 (GPR43): do not activate

Compound: ASP: Acylation stimulating protein, identical to the desarginated form of complement C3a, i.e., C3adesArg
- binding to GPR77, competition with C5a and C3a (GPR77): shown to bind to GPR77; also recorded: competed with C5a and C3a

The next lines start with results.

- activation of TGR18 in FLIPR assay (TGR18 [4]): activated
Compound: O=C(O)CC(=O)C(=O)O [oxalacetic acid]

- concentration at which GPR43 is activated (GPR43): about 140 μM
Compound: CCC(=O)O [propionate]

- activation of human TGR18 in Aequorin assay (Human TGR18): activated
- activation of mouse TGR18 in Aequorin assay (mouse TGR18): activated
- activation of rat TGR18 in Aequorin assay (rat TGR18): activated
- TGR18-mediated activation of CRE-luciferase reporter (TGR18 [5]): induced
- pEC50 (TGR18 [4]; 293 cells stably expressing TGR18, FIG. 6B, read-out: EC50 of TGR18 activation in FLIPR assay): ~4.57
- activation of TGR18 in FLIPR assay (TGR18 [4]): activated
- increase of inositol phosphate levels, TGR18 (TGR18 [1]): increased inositol phosphate levels
Compound: O=C(O)CCC(=O)O [succinic acid]
- activation of thirty other GPCRs (thirty other GPCRs): does not activate

- ligand for / activation of TGR18 (TGR18 [6]): ligands for TGR18
Compound: O=C1CCC(=O)O1 [succinic anhydride]

- activation of TGR164 in Aequorin assay (TGR164 [2]): TGR164 ligand
- activation of TGR164 in Aequorin assays in multiple cell lines (TGR164 [2]; multiple cell lines): activates
- inositol phosphate accumulation, TGR164 (TGR164 [3]): observed
Compound: O=C(O)CCC(=O)C(=O)O [α-ketoglutaric acid]

- activation of TGR2 in inositol phosphate accumulation assay (TGR2 [7]): activated
- activation of mouse ortholog mMrgD in Aequorin assay (mMrgD): specifically activated
- pEC50 (TGR2 [8]; CHO cells transiently transfected with TGR2, FIG. 1): 5.04
- activation of TGR2 (increase in intracellular calcium), library screen (TGR2 [8]; at 10 μM): positive hit
Compound: NCCC(=O)O [β-alanine]
- activation of 40 other orphan GPCRs (40 other orphan GPCRs): did not activate
